{
  "source": "PubChem BioAssay AID1259407",
  "about": "(Chemical Carcinogenesis Research Information System (CCRIS), 2018)",
  "test_system": "CCRIS mutagenicity, Ames/micronucleus/aberration tests",
  "test": "CCRIS mutagenicity studies",
  "note": "Activity calls are given as the source filed them. No rule for the calls is given here.",
  "data": [
    {"smiles": "Nc1ccc(N)cc1", "values": [
      {"measurement": "mutagenic call", "setting": "End Point: IN VITRO CHROMOSOMAL ABERRATIONS, Test System: CHL CELLS, Metabolic Activation: NONE", "result": "active; positive (structural changes)"},
      {"measurement": "mutagenic call", "setting": "End Point: IN VITRO CHROMOSOMAL ABERRATIONS, Test System: CHL CELLS, Metabolic Activation: RAT, LIVER, S-9, SODIUM PHENOBARBITAL AND 5,6-BENZOFLAVONE", "result": "active; positive (structural changes)"},
      {"measurement": "mutagenic call", "setting": "End Point: IN VITRO MICRONUCLEUS, Test System: CHL/IU CELLS, Metabolic Activation: RAT, LIVER, S-9, PHENOBARBITAL AND 5,6-BENZOFLAVONE", "result": "active; positive"},
      {"measurement": "mutagenic call", "setting": "End Point: In vitro micronucleus, Test System: Human lymphocytes, Metabolic Activation: Rat, Liver, S-9, Aroclor 1254", "result": "active; positive"},
      {"measurement": "mutagenic call", "setting": "Test System: AMES SALMONELLA TYPHIMURIUM, Strain/Indicator: TA98(NR), Metabolic Activation: NONE, Method: PREINCUBATION", "result": "inactive; negative"},
      {"measurement": "mutagenic call", "setting": "Test System: AMES SALMONELLA TYPHIMURIUM, Strain/Indicator: TA98(NR), Metabolic Activation: RAT, LIVER, S-9, AROCLOR 1254, Method: PREINCUBATION", "result": "active; positive"},
      {"measurement": "mutagenic call", "setting": "Test System: AMES SALMONELLA TYPHIMURIUM, Strain/Indicator: TA98, Metabolic Activation: HAMSTER, LIVER, S-9, AROCLOR 1254 (30%), Method: PREINCUBATION", "result": "active; positive"},
      {"measurement": "mutagenic call", "setting": "Test System: AMES SALMONELLA TYPHIMURIUM, Strain/Indicator: TA98, Metabolic Activation: NONE", "result": "inactive; negative"},
      {"measurement": "mutagenic call", "setting": "Test System: AMES SALMONELLA TYPHIMURIUM, Strain/Indicator: TA98, Metabolic Activation: NONE, Method: PREINCUBATION", "result": "inactive; negative"},
      {"measurement": "mutagenic call", "setting": "Test System: AMES SALMONELLA TYPHIMURIUM, Strain/Indicator: TA98, Metabolic Activation: NONE, Method: STANDARD PLATE", "result": "inactive; negative"},
      {"measurement": "mutagenic call", "setting": "Test System: AMES SALMONELLA TYPHIMURIUM, Strain/Indicator: TA98, Metabolic Activation: PEA APICAL BUD S-9, Method: PREINCUBATION", "result": "inactive; negative"},
      {"measurement": "mutagenic call", "setting": "Test System: AMES SALMONELLA TYPHIMURIUM, Strain/Indicator: TA98, Metabolic Activation: PEA APICAL BUD S-9, Method: STANDARD PLATE", "result": "inactive; negative"},
      {"measurement": "mutagenic call", "setting": "Test System: AMES SALMONELLA TYPHIMURIUM, Strain/Indicator: TA98, Metabolic Activation: PLANT (PERSEA AMERICANA) S-117, Method: STANDARD PLATE", "result": "inactive; negative"},
      {"measurement": "mutagenic call", "setting": "Test System: AMES SALMONELLA TYPHIMURIUM, Strain/Indicator: TA98, Metabolic Activation: PLANT (ZEA MAYS) S-9, Method: STANDARD PLATE", "result": "inactive; negative"},
      {"measurement": "mutagenic call", "setting": "Test System: AMES SALMONELLA TYPHIMURIUM, Strain/Indicator: TA98, Metabolic Activation: RAT LIVER S-9, PHENOBARBITAL AND BETA-NAPHTHOFLAVONE, Method: PREINCUBATION", "result": "active; positive"},
      {"measurement": "mutagenic call", "setting": "Test System: AMES SALMONELLA TYPHIMURIUM, Strain/Indicator: TA98, Metabolic Activation: RAT, LIVER, S-9, AROCLOR 1254", "result": "active; positive"},
      {"measurement": "mutagenic call", "setting": "Test System: AMES SALMONELLA TYPHIMURIUM, Strain/Indicator: TA98, Metabolic Activation: RAT, LIVER, S-9, AROCLOR 1254 (30%), Method: PREINCUBATION", "result": "active; positive"},
      {"measurement": "mutagenic call", "setting": "Test System: AMES SALMONELLA TYPHIMURIUM, Strain/Indicator: TA100(NR), Metabolic Activation: NONE, Method: PREINCUBATION", "result": "active; positive"},
      {"measurement": "mutagenic call", "setting": "Test System: AMES SALMONELLA TYPHIMURIUM, Strain/Indicator: TA100(NR), Metabolic Activation: RAT, LIVER, S-9, AROCLOR 1254, Method: PREINCUBATION", "result": "inactive; negative"},
      {"measurement": "mutagenic call", "setting": "Test System: AMES SALMONELLA TYPHIMURIUM, Strain/Indicator: TA100, Metabolic Activation: HAMSTER, LIVER, S-9, AROCLOR 1254 (30%), Method: PREINCUBATION", "result": "inactive; negative"},
      {"measurement": "mutagenic call", "setting": "Test System: AMES SALMONELLA TYPHIMURIUM, Strain/Indicator: TA100, Metabolic Activation: NONE, Method: PREINCUBATION", "result": "inactive; negative"},
      {"measurement": "mutagenic call", "setting": "Test System: AMES SALMONELLA TYPHIMURIUM, Strain/Indicator: TA100, Metabolic Activation: NONE, Method: STANDARD PLATE", "result": "inactive; negative"},
      {"measurement": "mutagenic call", "setting": "Test System: AMES SALMONELLA TYPHIMURIUM, Strain/Indicator: TA100, Metabolic Activation: PEA APICAL BUD S-9, Method: PREINCUBATION", "result": "inactive; negative"},
      {"measurement": "mutagenic call", "setting": "Test System: AMES SALMONELLA TYPHIMURIUM, Strain/Indicator: TA100, Metabolic Activation: PEA APICAL BUD S-9, Method: STANDARD PLATE", "result": "inactive; negative"},
      {"measurement": "mutagenic call", "setting": "Test System: AMES SALMONELLA TYPHIMURIUM, Strain/Indicator: TA100, Metabolic Activation: PLANT (PERSEA AMERICANA) S-117, Method: STANDARD PLATE", "result": "inactive; negative"},
      {"measurement": "mutagenic call", "setting": "Test System: AMES SALMONELLA TYPHIMURIUM, Strain/Indicator: TA100, Metabolic Activation: PLANT (ZEA MAYS) S-9, Method: STANDARD PLATE", "result": "inactive; negative"},
      {"measurement": "mutagenic call", "setting": "Test System: AMES SALMONELLA TYPHIMURIUM, Strain/Indicator: TA100, Metabolic Activation: RAT LIVER S-9, PHENOBARBITAL AND BETA-NAPHTHOFLAVONE, Method: PREINCUBATION", "result": "inactive; negative"},
      {"measurement": "mutagenic call", "setting": "Test System: AMES SALMONELLA TYPHIMURIUM, Strain/Indicator: TA100, Metabolic Activation: RAT, LIVER, S-9, AROCLOR 1254 (30%), Method: PREINCUBATION", "result": "inactive; negative"},
      {"measurement": "mutagenic call", "setting": "Test System: AMES SALMONELLA TYPHIMURIUM, Strain/Indicator: TA100, Metabolic Activation: RAT, LIVER, S-9, AROCLOR 1254, Method: PREINCUBATION", "result": "inactive; negative"},
      {"measurement": "mutagenic call", "setting": "Test System: AMES SALMONELLA TYPHIMURIUM, Strain/Indicator: TA100, Metabolic Activation: RAT, LIVER, S-9, AROCLOR 1254, Method: STANDARD PLATE", "result": "inactive; negative"},
      {"measurement": "mutagenic call", "setting": "Test System: AMES SALMONELLA TYPHIMURIUM, Strain/Indicator: TA102, Metabolic Activation: NONE, Method: STANDARD PLATE", "result": "inactive; negative"},
      {"measurement": "mutagenic call", "setting": "Test System: AMES SALMONELLA TYPHIMURIUM, Strain/Indicator: TA1535, Metabolic Activation: NONE, Method: PREINCUBATION", "result": "inactive; negative"},
      {"measurement": "mutagenic call", "setting": "Test System: AMES SALMONELLA TYPHIMURIUM, Strain/Indicator: TA1535, Metabolic Activation: RAT LIVER S-9, PHENOBARBITAL AND BETA-NAPHTHOFLAVONE, Method: PREINCUBATION", "result": "inactive; negative"},
      {"measurement": "mutagenic call", "setting": "Test System: AMES SALMONELLA TYPHIMURIUM, Strain/Indicator: TA1537, Metabolic Activation: NONE, Method: PREINCUBATION", "result": "inactive; negative"},
      {"measurement": "mutagenic call", "setting": "Test System: AMES SALMONELLA TYPHIMURIUM, Strain/Indicator: TA1537, Metabolic Activation: RAT LIVER S-9, PHENOBARBITAL AND BETA-NAPHTHOFLAVONE, Method: PREINCUBATION", "result": "inactive; negative"},
      {"measurement": "mutagenic call", "setting": "Test System: AMES SALMONELLA TYPHIMURIUM, Strain/Indicator: TA1538, Metabolic Activation: RAT, LIVER, S-9, PHENOBARBITAL, Method: STANDARD PLATE", "result": "active; positive"}
    ]}
  ]
}
